Results on 7 compounds are retold here after US10513512B2, “Flavanone derivatives, and preparation method and use thereof” (Xuanwu Hospital of Capital Medical University, priority 2016, dated 2019).

The IC50 is the concentration needed to halve the response being measured.

Assay [1] concerns the target dopamine D2 receptor (DRD2) (Homo sapiens (Human), UniProt P14416). The assay is described as follows: Dopamine D2 receptor antagonism, Fluo-4 calcium fluorescence in HEK293 cells stably expressing DRD2/Gα16. As to conditions: 50 nM Dopamine as agonist, read-out: IC50 for inhibiting dopamine D2 receptor. The assay is classed as cell-based. The source says: Objective: positive symptoms (hallucination, delusion, etc.) in patients with schizophrenia may be associated with dopamine (DA) hyperfunction in subcortical limbic system, and antipsychotic drugs, which block Dopamine D2 Receptor (DRD2), can effectively control positive symptoms of schizophrenia. By establishing a cell line co-transfected with DRD2 and Gα16, the activated DRD2 can activate Gα16 protein, thereby activating phospholipase C (PLC) to produce inositol 1,4,5-triphosphate (IP3) and diacylglycerol (DAG), wherein IP3 can bind to the IP3 receptor on endoplasmic reticulum and mitochondria, resulting in intracellular calcium release. Therefore, the determination of a change in intracellular calcium can be used as a method for detecting the activated state of DRD2.
Fluo-4/AM was a calcium fluorescent probe indicator for determining calcium ions. In this experiment, a Fluo-4 fluorescence method was used to determine the level of activated Gα protein by measuring the fluorescence intensity excited by intracellular calcium ions. If a compound could activate DRD2, the calcium influx was enhanced; on the contrary, if a compound could antagonize DRD2, the calcium influx was reduced.
Methods: HEK293 cells stably expressing DRD2/Gα16 (a human embryonic kidney cell line, derived from Shanghai Institute of Materia Medica, Chinese Academy of Sciences) were seeded in a 96-well plate (the culture solution was 90% DMEM+10% fetal bovine serum), and incubated overnight. The culture solution was pipetted off, and a freshly prepared dye Fluo-4/AM was added. The cells were incubated in a 37° C. incubator for 40 min. The dye was completely pipetted off. After the cells were washed with a freshly prepared calcium buffer, a calcium buffer (50 μl) dissolved with a test drug was added. FlexStation II instrument was used in the determination. A calcium buffer (25 μl) dissolved with a known agonist was added automatically by the instrument at the fifteenth second, and the fluorescence value at 525 nm (an excitation wavelength of 485 nm) was finally read. […] IC50 value was calculated by GraphPad Prism.

Assay [2] relates to myelin basic protein (MBP) in the frontal cortex of Cuprizone model mice. Description: Demyelination in Cuprizone mouse model: MBP content by Western blot. To be noted: 25 and 50 mg/kg groups, FIG. 9. The class given is in vivo. The source says:
Objectiv: pathological changes in white matter and demyelination are the important pathogenesis for many central nervous system diseases and mental disorders. Cuprizone can cause demyelination and pathological changes in white matter. Myelin basic protein (MBP) is a marker protein for myelination of axons, and is the main component of myelin sheath. In this experiment, Western Blot method was used to study the effects of the compounds of the invention on the MBP content and demyelination in the brain of Cuprizone model mice. Methods: Cuprizone mouse model establishment and administration method were the same as those described in Experimental example 4. After ethological tests were performed, the mice were anaesthetized by intraperitoneal injection of 10% chloral hydrate. The brains were harvested and stored at −80° C. Western blot assay: brain tissue was lysed with lysate to extract protein, and the protein concentration was determined. SDS-PAGE gel electrophoresis was performed, the protein was transferred onto a membrane, and the membrane was blocked. The protein was incubated with an anti-MBP antibody (a primary antibody) overnight at 4° C. in a refrigerator. […] Signal intensity for each protein band was analyzed using FluorChem 8900 gray-scale analysis software.
(A western blot detects proteins with antibodies after separation by electrophoresis.)

The subject of assay [3] is MK-801-induced hyperlocomotion schizophrenia model in mice. Description: MK-801-induced hyperlocomotion schizophrenia model in mice (open-field test). The class given is in vivo, mouse. As to conditions: within 210 min; for Distance of central district activity / Total distance traveled: 50 mg/kg intragastric, Balb/c mice, MK-801 0.6 mg/kg i.p., Mean ± SE, n = 10; for distance of center square activity, effect in words / total distance of spontaneous activity, effect in words: intragastrical administration, MK-801 model mice. From the text: Objective: Glutamatergic hypofunction is one of the pathogenesis for mental disorders such as schizophrenia. N-methyl-D-aspartic acid (NMDA) receptor antagonists can induce schizophrenia-like effects. In this experiment, a hyperlocomotion schizophrenia model in mice induced by dizocilpine (MK-801), a NMDA receptor antagonist, was used to investigate the in vivo activity of the compounds P6, P5, P4 and P7 of the invention.
Methods: SPF grade inbred Balb/c male mice with no special pathogens (purchased from Laboratory Animal Center of Capital Medical University), weighed (20±2) g, were randomly divided into a control group, a model group, and drug groups. The mice were adapted to the rearing environment for one week, and then were intragastrically administered for 3 days, wherein the control group and model group were intragastrically administered with physiological saline, and on Day 4, the mice were administered prior to test, and then were tested for 60 min in an Open-Field Activity Monitoring System. The control group was then intraperitoneally injected with physiological saline, the model group and the drug groups were intraperitoneally injected with a solution (0.6 mg/kg) of a NMDA receptor antagonist dizocilpine (MK-801), and the mice of these groups were further monitored for spontaneous activity and center square activity within 210 minutes, wherein spontaneous activity was used to reflect the positive symptom of rapid motion in schizophrenia, and center square activity was used to evaluate the anxiety status of schizophrenia.

The test system of another assay is Cuprizone model mice. Description: Ethological change in Cuprizone model mice (Y-maze and open-field behavior test). The assay is classed as in vivo, mouse. To be noted: intragastrical administration; for number of arm entries in Y-maze, effect in words / spontaneous alternation in Y-maze, effect in words: within 8 min; for number of arm entries in Y-maze, effect in words: FIG. 6; for spontaneous alternation in Y-maze, effect in words: FIG. 7; for total distance of spontaneous activity in open-field test, effect in words: within 10 min, FIG. 8. From the text:
Objective: neuroinflammation, pathological changes in white matter, and demyelination are the important pathogenesis for many central nervous system diseases. Cuprizone (dicyclohexanoneoxaly dihydrazone) can cause changes such as inflammation, demyelination, axonal injury, and cognitive function impairment. In this experiment, Y-maze and open-field behavior test were used to study the effects of the compounds of the invention on memory function and motion in a Cuprizone mouse model.
Methods: SPF grade inbred C57BL/6 male mice, weighed (20±2) g, were randomly divided into a control group, a model group, and drug groups. The mice were adapted to the rearing environment for 3 days. Then, the control group was fed with a normal feed, and the other groups were fed with a feed containing 0.2% Cuprizone for model establishment. During model establishment, the mice in each group were intragastrically administered with a corresponding dose of drug, and were reared for 5 weeks. The mice were then subjected to the Y-maze and open field behavior test, wherein the number of arm entries in Y-maze was used to reflect the motion of mice; the spontaneous alternation in Y maze was used to reflect the working memory of mice; and the spontaneous activity in open-field behavior test was used to reflect the motion of mice.

In assay [4] the test system is Iba-1-labeled microglial cells in the brain of Cuprizone model mice. Description: Microglial cell activation in Cuprizone mouse model: Iba-1 immunohistochemical staining. To be noted: 25, 50 mg/kg, FIG. 10. The assay is classed as in vivo. From the text: Objective: microglial activation and neuroinflammation are the important pathogenesis for many central nervous system diseases. Iba-1 could specifically label microglial cells. In this experiment, immunohistochemical method was used to study the effects of the compounds of the invention on Iba-1-labeled microglial cells in the brain of Cuprizone model mice.
Methods: Cuprizone mouse model establishment and administration method were the same as those described in Experimental example 4. After ethological tests were performed, the mice were anaesthetized by intraperitoneal injection of 10% chloral hydrate. After perfusion, brain tissue was taken and fixed with […] paraformaldehyde, and then frozen and sliced. Immunohistochemical staining: the frozen sections were inactivated with 3% H2O2 for 10 min and rinsed with PBS; the tissues were blocked with 10% serum and incubated at 37° C. for 1 h. Serum was washed off and a primary antibody (an anti-Iba-1 antibody) was added dropwise. The resultant mixture was kept at 4° C. overnight. After rinsing with PBST, a biotin-conjugated goat anti-rabbit IgG antibody (a secondary antibody) was added dropwise, and incubated at 37° C. for 2 hrs. After rinsing with PBST, a horseradish peroxidase-conjugated streptavidin (a third antibody) was added dropwise, and incubated at 37° C. for 2 hrs. […] Iba-1 positive cells were observed under microscope, and counted.

Sequence of dopamine D2 receptor (DRD2) (P14416 whole entry): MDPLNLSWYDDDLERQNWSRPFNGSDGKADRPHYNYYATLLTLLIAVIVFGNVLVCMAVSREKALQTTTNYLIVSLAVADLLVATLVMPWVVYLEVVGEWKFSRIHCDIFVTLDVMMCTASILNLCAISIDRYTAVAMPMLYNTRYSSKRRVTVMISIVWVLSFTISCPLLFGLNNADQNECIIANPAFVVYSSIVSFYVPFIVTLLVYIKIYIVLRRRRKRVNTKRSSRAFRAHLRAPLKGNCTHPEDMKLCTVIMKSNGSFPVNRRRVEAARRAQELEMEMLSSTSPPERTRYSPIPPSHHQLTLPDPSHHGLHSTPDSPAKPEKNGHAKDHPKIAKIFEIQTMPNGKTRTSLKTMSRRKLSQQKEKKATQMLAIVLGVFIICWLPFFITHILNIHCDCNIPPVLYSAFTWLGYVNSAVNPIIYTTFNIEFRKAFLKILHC

Turning to `COc1ccc(C2CC(=O)c3c(O)cc(OCCCCN4CCN(c5ccccc5OC)CC4)cc3O2)cc1` (stereo not drawn) [Compound P1, 5-hydroxy-2-(4-methoxyphenyl)-7-(4-(4-(2-methoxyphenyl)-piperazin-1-yl)-butoxy)-chroman-4-one], the IC50 in assay [1] turned out to be 205 nM.
The same measure, in the same setting: the value for `COc1ccccc1N1CCN(CCCCOc2cc(O)c3c(c2)OC(c2ccc(C)cc2)CC3=O)CC1` (stereo not drawn) [Compound P2, 5-hydroxy-2-(4-methylphenyl)-7-(4-(4-(2-methoxyphenyl)-piperazin-1-yl)-butoxy)-chroman-4-one] was 346 nM.
`COc1ccccc1N1CCN(CCCCOc2cc(O)c3c(c2)OC(c2ccc(F)cc2)CC3=O)CC1` (stereo not drawn) [Compound P3, 5-hydroxy-2-(4-fluorophenyl)-7-(4-(4-(2-methoxyphenyl)-piperazin-1-yl)-butoxy)-chroman-4-one]: in assay [1], the IC50 was 57.3 nM.
Turning to `O=C1CC(c2ccc(F)cc2)Oc2cc(OCCCCN3CCC(c4noc5cc(F)ccc45)CC3)cc(O)c21` (stereo not drawn) [Compound P4, 5-hydroxy-2-(4-fluorophenyl)-7-(4-(4-(6-fluoro-benzo[d]isoxazol-3-yl)-piperidin-1-yI)-butoxy)-chroman-4-one], the “MBP content in frontal cortex, effect in words” value in assay [2] was “could significantly enhance the MBP content”. In addition, the IC50 in assay [1] was found to be 87.7 nM. For the same compound, in assay [3], the “Distance of central district activity” value turned out to be 11098 ± 1422 cm and the Total distance traveled came out at 39222 ± 4300 cm.
As for `COc1ccc(C2CC(=O)c3c(O)cc(OCCCCN4CCC(c5noc6cc(F)ccc56)CC4)cc3O2)cc1` (stereo not drawn) [Compound P5, 5-hydroxy-2-(4-methoxyphenyl)-7-(4-(4-(6-fluoro-benzo[d]isoxazol-3-yl)-piperidin-1-yl)-butoxy)-chroman-4-one], the “MBP content in frontal cortex, effect in words” value in assay [2] was “could significantly enhance the MBP content”. For the same compound, in the assay with Cuprizone model mice, the “number of arm entries in Y-maze, effect in words” value was “could reduce the number of arm entries”; the “spontaneous alternation in Y-maze, effect in words” value is reported as “enhance the spontaneous alternation”; the “total distance of spontaneous activity in open-field test, effect in words” value is listed as “could shorten the total distance of spontaneous activity”. For the same compound, in assay [1], the IC50 stood at 51.3 nM. In assay [3], the “Distance of central district activity” value came out at 9211 ± 1845 cm; the Total distance traveled was 30914 ± 3351 cm; the “distance of center square activity, effect in words” value (“distance of center square activity” for short) is “could shorten the total distance of spontaneous activity and the distance of center square activity”; the “total distance of spontaneous activity, effect in words” value is “could shorten the total distance of spontaneous activity”.
As for `COc1ccc(C2CC(=O)c3c(O)cc(OCCCN4CCN(c5ccccc5OC)CC4)cc3O2)cc1` (stereo not drawn) [Compound P6, 5-hydroxy-2-(4-methoxyphenyl)-7-(4-(4-(2-methoxyphenyl)-piperazin-1-yl)-propoxy)-chroman-4-one], the “number of Iba-1-labeled microglial cells in the brain, effect in words” value in assay [4] was “could significantly reduce the number of microglial cells”. For the same compound, in the assay with Cuprizone model mice, the “number of arm entries in Y-maze, effect in words” value is recorded as “could reduce the number of arm entries”; the “spontaneous alternation in Y-maze, effect in words” value is on record as “enhance the spontaneous alternation”; the “total distance of spontaneous activity in open-field test, effect in words” value is reported as “could shorten the total distance of spontaneous activity”. The IC50 in assay [1] turned out to be 220 nM. In addition, in assay [3], the “Distance of central district activity” value is on record as 10181 ± 2110 cm; the Total distance traveled is 46922 ± 2233 cm; the “distance of center square activity” value is “could shorten the total distance of spontaneous activity and the distance of center square activity”; the “total distance of spontaneous activity, effect in words” value is recorded as “could shorten the total distance of spontaneous activity”.
As for `COc1ccc(C2CC(=O)c3c(O)cc(OCCCN4CCC(c5noc6cc(F)ccc56)CC4)cc3O2)cc1` (stereo not drawn) [Compound P7, 5-hydroxy-2-(4-methoxyphenyl)-7-(4-(4-(6-fluoro-benzo[d]isoxazol-3-yl)-piperidin-1-yl)-propoxy)-chroman-4-one], the IC50 in assay [1] is 116 nM. Also, in assay [3], the “Distance of central district activity” value turned out to be 7913 ± 1666 cm; the Total distance traveled worked out at 37051 ± 4308 cm; the “distance of center square activity” value was “could shorten the total distance of spontaneous activity and the distance of center square activity”; the “total distance of spontaneous activity, effect in words” value is recorded as “could shorten the total distance of spontaneous activity”.
